Laboratory results reported in USRE47689E1, “Compounds for treating spinal muscular atrophy” (PTC Therapeutics, Inc., priority 2011, dated 2019).

Experiments:
[1] = test system: SMN2 minigene (full length SMN2 minigene mRNA containing SMN2 exon 7); experiment: SMN2 minigene mRNA splicing RT-qPCR assay in cultured cells; assay type: cell-based, human; conditions: Homo sapiens, HEK293-H; HEK293H cells stably transfected with SMN2-A minigene; 24 hours; 7-point concentration curve; 1.5-fold relative to vehicle-treated cells; read-out: EC1.5x for production of full length SMN2 mRNA
How it was run: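 Read-out: full-length (exon 7-included) SMN2 minigene mRNA by multiplex RT-qPCR with GAPDH, efficiency-corrected (1+E)^−Ct, GAPDH-normalized and divided by vehicle. Stably transfected HEK293H cells, 24 h compound exposure, duplicates per concentration. Value is EC1.5x, reported as star ranges.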

Smn protein = Smn protein assay in cultured cells (SMN HTRF); assay type: cell-based, human; conditions: 48 hours; for EC1.5x (concentration giving 1.5-fold Smn protein increase): SMA Type 1 patient fibroblast cells (GM03813), 7-point concentration curve, SMN HTRF, concentration producing 1.5 times Smn protein vs DMSO vehicle control, read-out: EC1.5x for Smn protein expression; for maximum fold (Fold) increase of Smn protein: SMA patient fibroblast cells, 7-point concentration data, fold increase relative to vehicle control (SMN HTRF)
How it was run: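 Lysates in RIPA with protease inhibitors are incubated overnight at room temperature with HTRF anti-SMN antibodies. EC1.5x is derived from fold increase in ΔF over vehicle.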

SMILES	melting point [°C]	EC (1.5-fold) [1] [µM]	EC1.5x (concentration giving 1.5-fold Smn protein increase) (Smn protein) [nM]	maximum fold (Fold) increase of Smn protein (Smn protein)
CN(C)Cc1ccc2cc(-c3cn4ccsc4n3)c(=O)oc2c1 [Compound 198, 7-[(dimethylamino)methyl]-3-(imidazo[2,1-b][1,3]thiazol-6-yl)-2H-chromen-2-one]	135 to 140	0.3 to 1	3000 to 10000	**** (fold increase between >1.5 and ≤1.65)
C[C@@H]1CN(c2ccc3cc(-c4cn5cc(F)cc(F)c5n4)c(=O)oc3c2)C[C@H](C)N1 [Compound 523, 3-(6,8-difluoroimidazo[1,2-a]pyridin-2-yl)-7-[(3R,5S)-3,5-dimethylpiperazin-1-yl]-2H-chromen-2-one]	267 to 277	0.3 to 1		** (fold increase between >1.2 and ≤1.35)
Cc1cn2cc(-c3cc4ccc(CCCCN(C)C)cc4oc3=O)nc2c(C)n1 [Cpd 902, 7-[4-(dimethylamino)butyl]-3-(6,8-dimethylimidazo[1,2-a]pyrazin-2-yl)-2H-chromen-2-one]	190 to 193	< 0.1	< 300	***** (fold increase >1.65)
Cc1cn2cc(-c3cc4ccc(N[C@H]5CCN(C)C5)cc4oc3=O)nc2c(C)n1 [Compound 657, 3-(6,8-dimethylimidazo[1,2-a]pyrazin-2-yl)-7-{[(3S)-1-methylpyrrolidin-3-yl]amino}-2H-chromen-2-one]	223 to 233	< 0.1	< 300	**** (fold increase between >1.5 and ≤1.65)
COCCNCCCc1ccc2cc(-c3cn4cc(C)nc(C)c4n3)c(=O)oc2c1 [Compound 931, 3-(6,8-dimethylimidazo[1,2-a]pyrazin-2-yl)-7-{3-[(2-methoxyethyl)amino]propyl}-2H-chromen-2-one]	147 to 150	< 0.1	300 to 1000	**** (fold increase between >1.5 and ≤1.65)

Second part, led by results:

melting point [°C]	SMILES	EC (1.5-fold) [1] [µM]	EC1.5x (concentration giving 1.5-fold Smn protein increase) (Smn protein) [nM]	maximum fold (Fold) increase of Smn protein (Smn protein)
284 to 286	Cc1cn2cc(-c3cc4ccc(N5CC(N6CCCCC6)C5)cc4oc3=O)nc2c(C)n1 [Compound 951, 3-(6,8-dimethylimidazo[1,2-a]pyrazin-2-yl)-7-[3-(piperidin-1-yl)azetidin-1-yl]-2H-chromen-2-one]	< 0.1	1000 to 3000	**** (fold increase between >1.5 and ≤1.65)
> 300	Cl.O=c1oc2cc(N3CCCNCC3)ccc2cc1-c1cn2cccnc2n1 [Compound 186, 7-(1,4-diazepan-1-yl)-3-(imidazo[1,2-a]pyrimidin-2-yl)-2H-chromen-2-one hydrochloride]	0.1 to 0.3	1000 to 3000	*** (fold increase between >1.35 and ≤1.5)
263 to 266	Cc1cn2cc(-c3cc4ccc(N5CCN(C6CC6)CC5)cc4oc3=O)nc2c(C)n1 [Compound 762, 7-(4-cyclopropylpiperazin-1-yl)-3-(6,8-dimethylimidazo[1,2-a]pyrazin-2-yl)-2H-chromen-2-one]	< 0.1	300 to 1000	**** (fold increase between >1.5 and ≤1.65)
222 to 225	Cc1cn2cc(-c3cc4ccc(N5CCCNCC5)cc4oc3=O)ccc2n1 [Compound 663, 7-(1,4-diazepan-1-yl)-3-(2-methylimidazo[1,2-a]pyridin-6-yl)-2H-chromen-2-one]	< 0.1		*** (fold increase between >1.35 and ≤1.5)
186 to 188	O=c1oc2cc(N3CCNCC3)ccc2cc1-c1ccc(F)c(Cl)c1 [Compound 484, 3-(3-chloro-4-fluorophenyl)-7-(piperazin-1-yl)-2H-chromen-2-one]	0.3 to 1		* (maximum fold increase of ≤1.2)
